Structures are written as SMILES.

In the assay the target is T1, bPARG (construct C, 75-kDa carboxyl-terminal region) expressed in E. coli (Bos taurus, UniProt O02776).
T1 construct: construct C contained only the 75-kDa carboxyl-terminal region of the PARG, which predicted a fusion protein of approximately 79 kDa; made in house; host or cells: E. coli (pTrcHis expression plasmid; supernatant of crude cell extract)
Description: PARG activity, thin layer chromatography assay measuring release of [32P]ADP-ribose from [32P]ADP-ribose polymers. Type of assay: biochemical, bovine. Particulars: 167 μm inhibitor; extract of E. coli strain containing construct C, 5 h after induction by IPTG (FIG. 6, bar 6 vs bar 5). The procedure:
For expression experiments, bacterial cultures were grown at 37° C. in 1% Bacto-tryptone, 0.5% yeast extract, and 0.5% NaCl to a density of approximately 0.6 A600/ml and were induced with 1 mM isopropyl-β-D-thiogalactoside (IPTG). Cells were-collected by centrifugation, and crude extracts were prepared by sonication (10 A600/ml) in 10 mM sodium phosphate buffer, pH 7.2, 150 mM NaCl, 0.5 mg/ml lysozyme, 0.1 mg/ml phenylmethylsulfonyl fluoride, 1 mM EDTA, 0.7 μg/ml pepstatin A, 0.5 μg/ml leupeptin, and 1 μg/ml aprotinin. Cell extracts were subjected to centrifugation, and the supernatant fraction was used for assay. PARG assay conditions were as described previously (52). Following incubations, portions of reaction mixture were analyzed by thin layer chromatography or subjected to anion exchange HPLC.
Using a thin layer chromatography assay that measures release of [^32P]ADP-ribose from [^32P]ADP-ribose polymers (53), PARG activity was detected in extracts from cells transformed by each of the constructs. […] Reaction mixtures contained approximately 15,000 cpm of [^32P]ADP-ribose polymers, and the cpm shown represent ADP-ribose released from the ADP-ribose polymers. […] No activity was detected in cells transformed with the empty vector, but activity was detectable without induction by IPTG, indicating a leaky lac promoter.

T1 sequence (O02776 322-977 limits assumed): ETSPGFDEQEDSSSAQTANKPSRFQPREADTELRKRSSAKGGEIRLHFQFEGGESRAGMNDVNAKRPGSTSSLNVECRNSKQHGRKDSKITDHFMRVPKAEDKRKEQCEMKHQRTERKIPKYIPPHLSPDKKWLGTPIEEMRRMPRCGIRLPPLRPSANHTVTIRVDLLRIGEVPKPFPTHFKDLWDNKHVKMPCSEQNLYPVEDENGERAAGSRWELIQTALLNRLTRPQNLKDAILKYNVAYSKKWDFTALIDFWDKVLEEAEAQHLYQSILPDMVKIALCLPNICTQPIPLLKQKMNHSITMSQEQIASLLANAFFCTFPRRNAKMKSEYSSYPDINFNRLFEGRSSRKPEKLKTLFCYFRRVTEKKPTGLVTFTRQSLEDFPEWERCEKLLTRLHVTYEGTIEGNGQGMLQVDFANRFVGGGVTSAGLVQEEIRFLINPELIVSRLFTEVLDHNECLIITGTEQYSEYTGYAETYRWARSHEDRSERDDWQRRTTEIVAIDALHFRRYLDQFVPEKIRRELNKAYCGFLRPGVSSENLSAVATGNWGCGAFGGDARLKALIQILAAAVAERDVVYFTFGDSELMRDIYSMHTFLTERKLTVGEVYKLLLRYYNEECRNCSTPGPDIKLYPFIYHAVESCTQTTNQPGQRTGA

As to `Nc1ncnc2c1ncn2[C@@H]1O[C@H](COP(=O)(O)OP(=O)(O)OC[C@H]2NC[C@H](O)[C@@H]2O)[C@@H](O)[C@H]1O` [ADP-hydroxymethylpyrrolidine diol], the “enzymatic activity (ADP-ribose released from ADP-ribose polymers)” value is “strongly inhibited”.

The values are drawn from patent publication US7538194B2, “Genes encoding several poly (ADP-ribose) glycohydrolase (PARG) enzymes, the proteins and fragments thereof, and antibodies immunoreactive therewith” (University of Kentucky Research Foundation, priority 1998, dated 2009).
